Columns and labels:
Type in all cases: cell-based
SF-268 = experiment: NCI single dose screening (10 µM); conditions: Homo sapiens; SF-268, CNS cancer, single dose 10^−5 M; read-out: GI% (cell growth inhibition percentage)
BT-549 = experiment: NCI single dose screening (10 µM); conditions: Homo sapiens; BT-549, Breast cancer, single dose 10^−5 M; read-out: GI% (cell growth inhibition percentage)
SW-620 = experiment: NCI single dose screening (10 µM); conditions: Homo sapiens; SW-620, Colon cancer, single dose 10^−5 M; read-out: GI% (cell growth inhibition percentage)
EKVX = experiment: NCI single dose screening (10 µM); conditions: Homo sapiens, Non-small cell lung cancer, single dose 10^−5 M, read-out: GI% (cell growth inhibition percentage)
UACC-257 = experiment: NCI single dose screening (10 µM); conditions: Homo sapiens; UACC-257, Melanoma, single dose 10^−5 M; read-out: GI% (cell growth inhibition percentage)
A549/ATCC = experiment: NCI single dose screening (10 µM); conditions: Homo sapiens; A549/ATCC, Non-small cell lung cancer, single dose 10^−5 M; read-out: GI% (cell growth inhibition percentage)
KM12 = experiment: NCI single dose screening (10 µM); conditions: Homo sapiens; KM12, Colon cancer, single dose 10^−5 M; read-out: GI% (cell growth inhibition percentage)
MALME-3M = experiment: NCI single dose screening (10 µM); conditions: Homo sapiens; MALME-3M, Melanoma, single dose 10^−5 M; read-out: GI% (cell growth inhibition percentage)
[1] = system: NCI-55 cancer cell line panel; experiment: NCI single dose screening (10 µM), whole panel; conditions: Homo sapiens; mean over NCI-55 cell lines, single dose 10^−5 M; read-out: Mean inhibition, % (mean GI%)
HCT-116 = experiment: NCI single dose screening (10 µM); conditions: Homo sapiens; HCT-116, Colon cancer, single dose 10^−5 M; read-out: GI% (cell growth inhibition percentage)
ACHN = experiment: NCI single dose screening (10 µM); conditions: Homo sapiens, Renal cancer, single dose 10^−5 M, read-out: GI% (cell growth inhibition percentage)
LOX IMVI = experiment: NCI single dose screening (10 µM); conditions: Homo sapiens, Melanoma, single dose 10^−5 M, read-out: GI% (cell growth inhibition percentage)
HT-29 = experiment: NCI single dose screening (10 µM); conditions: Homo sapiens; HT-29, Colon cancer, single dose 10^−5 M; read-out: GI% (cell growth inhibition percentage)
NCI-H460 = experiment: NCI single dose screening (10 µM); conditions: Homo sapiens; NCI-H460, Non-small cell lung cancer, single dose 10^−5 M; read-out: GI% (cell growth inhibition percentage)
K-562 = experiment: NCI single dose screening (10 µM); conditions: Homo sapiens, K562; K-562, Leukaemia, single dose 10^−5 M; read-out: GI% (cell growth inhibition percentage)
RXF 393 = experiment: NCI single dose screening (10 µM); conditions: Homo sapiens; RXF 393, Renal cancer, single dose 10^−5 M; read-out: GI% (cell growth inhibition percentage)
OVCAR-4 = experiment: NCI single dose screening (10 µM); conditions: Homo sapiens; OVCAR-4, Ovarian cancer, single dose 10^−5 M; read-out: GI% (cell growth inhibition percentage)
MDA-MB-468 = experiment: NCI single dose screening (10 µM); conditions: Homo sapiens; MDA-MB-468, Breast cancer, single dose 10^−5 M; read-out: GI% (cell growth inhibition percentage)
CCRF-CEM = experiment: NCI single dose screening (10 µM); conditions: Homo sapiens, Leukaemia, single dose 10^−5 M, read-out: GI% (cell growth inhibition percentage)
SN12C = experiment: NCI single dose screening (10 µM); conditions: Homo sapiens, Renal cancer, single dose 10^−5 M, read-out: GI% (cell growth inhibition percentage)
HCC-2998 = experiment: NCI single dose screening (10 µM); conditions: Homo sapiens; HCC-2998, Colon cancer, single dose 10^−5 M; read-out: GI% (cell growth inhibition percentage)
U251 = experiment: NCI single dose screening (10 µM); conditions: Homo sapiens, U-251; U251, CNS cancer, single dose 10^−5 M; read-out: GI% (cell growth inhibition percentage)
NCI/ADR-RES = experiment: NCI single dose screening (10 µM); conditions: Homo sapiens, Ovarian cancer, single dose 10^−5 M, read-out: GI% (cell growth inhibition percentage)
HOP-92 = experiment: NCI single dose screening (10 µM); conditions: Homo sapiens; HOP-92, Non-small cell lung cancer, single dose 10^−5 M; read-out: GI% (cell growth inhibition percentage)
HOP-62 = experiment: NCI single dose screening (10 µM); conditions: Homo sapiens; HOP-62, Non-small cell lung cancer, single dose 10^−5 M; read-out: GI% (cell growth inhibition percentage)
OVCAR-3 = experiment: NCI single dose screening (10 µM); conditions: Homo sapiens; OVCAR-3, Ovarian cancer, single dose 10^−5 M; read-out: GI% (cell growth inhibition percentage)
MDA-MB-231/ATCC = experiment: NCI single dose screening (10 µM); conditions: Homo sapiens; MDA-MB-231/ATCC, Breast cancer, single dose 10^−5 M; read-out: GI% (cell growth inhibition percentage)
M14 = experiment: NCI single dose screening (10 µM); conditions: Homo sapiens; M14, Melanoma, single dose 10^−5 M; read-out: GI% (cell growth inhibition percentage)
SF-539 = experiment: NCI single dose screening (10 µM); conditions: Homo sapiens; SF-539, CNS cancer, single dose 10^−5 M; read-out: GI% (cell growth inhibition percentage)
UO-31 = experiment: NCI single dose screening (10 µM); conditions: Homo sapiens; UO-31, Renal cancer, single dose 10^−5 M; read-out: GI% (cell growth inhibition percentage)
MCF7 = experiment: NCI single dose screening (10 µM); conditions: Homo sapiens; MCF7, Breast cancer, single dose 10^−5 M; read-out: GI% (cell growth inhibition percentage)
T-47D = experiment: NCI single dose screening (10 µM); conditions: Homo sapiens, T47D; T-47D, Breast cancer, single dose 10^−5 M; read-out: GI% (cell growth inhibition percentage)

SMILES	inhibition at 10 µM (SF-268) [%]	inhibition at 10 µM (BT-549) [%]	inhibition at 10 µM (SW-620) [%]	inhibition at 10 µM (EKVX) [%]	inhibition at 10 µM (UACC-257) [%]	inhibition at 10 µM (A549/ATCC) [%]	inhibition at 10 µM (KM12) [%]	inhibition at 10 µM (MALME-3M) [%]	inhibition at 10 µM [1] [%]	inhibition at 10 µM (HCT-116) [%]	inhibition at 10 µM (ACHN) [%]	inhibition at 10 µM (LOX IMVI) [%]	inhibition at 10 µM (HT-29) [%]	inhibition at 10 µM (NCI-H460) [%]	inhibition at 10 µM (K-562) [%]	inhibition at 10 µM (RXF 393) [%]	inhibition at 10 µM (OVCAR-4) [%]	inhibition at 10 µM (MDA-MB-468) [%]	inhibition at 10 µM (CCRF-CEM) [%]	inhibition at 10 µM (SN12C) [%]	further results
Cc1c(C(=O)N/N=C2\C(=O)Nc3ccc(F)cc32)oc2ccccc12 [Compound 5b]	< 10	< 10	< 10	29.6	< 10	< 10	< 10	12.4	0.75	< 10	< 10	< 10	< 10	< 10	< 10	< 10	< 10	< 10	< 10	< 10	inhibition at 10 µM (HCC-2998): < 10%; inhibition at 10 µM (U251): < 10%; inhibition at 10 µM (NCI/ADR-RES): < 10%; inhibition at 10 µM (HOP-92): < 10%; inhibition at 10 µM (HOP-62): < 10%; inhibition at 10 µM (OVCAR-3): < 10%; inhibition at 10 µM (MDA-MB-231/ATCC): 14.6%; inhibition at 10 µM (M14): < 10%; inhibition at 10 µM (SF-539): < 10%; inhibition at 10 µM (UO-31): 26.7%; inhibition at 10 µM (MCF7): 19%; inhibition at 10 µM (T-47D): < 10%
Cc1c(C(=O)N/N=C2\C(=O)Nc3ccc(Br)cc32)oc2ccccc12 [Compound 5c]	11.7	22.1	10.6	32.1	< 10	27.9	20.5	64.9	22	32	35.5	33.8	< 10	42.6	18	11.1	31	< 10	< 10	29.8	inhibition at 10 µM (HCC-2998): < 10%; inhibition at 10 µM (U251): 42.6%; inhibition at 10 µM (NCI/ADR-RES): 29.3%; inhibition at 10 µM (HOP-92): 26.5%; inhibition at 10 µM (HOP-62): 41.4%; inhibition at 10 µM (OVCAR-3): < 10%; inhibition at 10 µM (MDA-MB-231/ATCC): 29.9%; inhibition at 10 µM (M14): 25.4%; inhibition at 10 µM (SF-539): 57.9%; inhibition at 10 µM (UO-31): 43.4%; inhibition at 10 µM (MCF7): 26.7%; inhibition at 10 µM (T-47D): 42.7%
COc1ccc2c(c1)/C(=N/NC(=O)c1oc3ccccc3c1C)C(=O)N2 [Compound 5d]	42.3	29.9	64.8	62.7	50	124	56.2	129	87.3	129	151	83.7	72.7	123	57.5	136	153	80.1	42.9	65.1	inhibition at 10 µM (HCC-2998): 56.5%; inhibition at 10 µM (U251): 98%; inhibition at 10 µM (NCI/ADR-RES): 69.5%; inhibition at 10 µM (HOP-92): 144%; inhibition at 10 µM (HOP-62): 124%; inhibition at 10 µM (OVCAR-3): 166%; inhibition at 10 µM (MDA-MB-231/ATCC): 76.2%; inhibition at 10 µM (M14): 71.3%; inhibition at 10 µM (SF-539): 62.6%; inhibition at 10 µM (UO-31): 155%; inhibition at 10 µM (MCF7): 77.1%; inhibition at 10 µM (T-47D): 139%
Cc1c(C(=O)N/N=C2\C(=O)N(C)c3ccccc32)oc2ccccc12 [Compound 7a]	< 10	< 10	30.6	25.1	< 10	< 10	< 10	< 10	0.09	< 10	< 10	< 10	< 10	< 10	< 10	< 10	< 10	< 10	< 10	< 10	inhibition at 10 µM (HCC-2998): < 10%; inhibition at 10 µM (U251): < 10%; inhibition at 10 µM (NCI/ADR-RES): < 10%; inhibition at 10 µM (HOP-92): < 10%; inhibition at 10 µM (HOP-62): < 10%; inhibition at 10 µM (OVCAR-3): < 10%; inhibition at 10 µM (MDA-MB-231/ATCC): < 10%; inhibition at 10 µM (M14): < 10%; inhibition at 10 µM (SF-539): < 10%; inhibition at 10 µM (UO-31): < 10%; inhibition at 10 µM (MCF7): 28.2%; inhibition at 10 µM (T-47D): 21.8%
